Values after ≈ are worked out from the molar mass of the structure shown.
Legend:
MES-SA = experiment: Antiproliferative activity against human MES-SA cells assessed as cell growth inhibition; assay type: functional, cell-based
MES-SA/Dx5 = experiment: Antiproliferative activity against human MES-SA/Dx5 cells assessed as cell growth inhibition; assay type: functional, cell-based
[1] = Antioxidant activity assessed as DPPH radical scavenging activity relative to control; assay type: functional; set-up: concentration or dose not given beside the values
[2] = target: T1, Nitric oxide synthase, inducible (Mus musculus, UniProt P29477); experiment: Inhibition of iNOS expression in LPS-induced mouse RAW264.7 cells; assay type: cell-based
T1 sequence (P29477 whole entry): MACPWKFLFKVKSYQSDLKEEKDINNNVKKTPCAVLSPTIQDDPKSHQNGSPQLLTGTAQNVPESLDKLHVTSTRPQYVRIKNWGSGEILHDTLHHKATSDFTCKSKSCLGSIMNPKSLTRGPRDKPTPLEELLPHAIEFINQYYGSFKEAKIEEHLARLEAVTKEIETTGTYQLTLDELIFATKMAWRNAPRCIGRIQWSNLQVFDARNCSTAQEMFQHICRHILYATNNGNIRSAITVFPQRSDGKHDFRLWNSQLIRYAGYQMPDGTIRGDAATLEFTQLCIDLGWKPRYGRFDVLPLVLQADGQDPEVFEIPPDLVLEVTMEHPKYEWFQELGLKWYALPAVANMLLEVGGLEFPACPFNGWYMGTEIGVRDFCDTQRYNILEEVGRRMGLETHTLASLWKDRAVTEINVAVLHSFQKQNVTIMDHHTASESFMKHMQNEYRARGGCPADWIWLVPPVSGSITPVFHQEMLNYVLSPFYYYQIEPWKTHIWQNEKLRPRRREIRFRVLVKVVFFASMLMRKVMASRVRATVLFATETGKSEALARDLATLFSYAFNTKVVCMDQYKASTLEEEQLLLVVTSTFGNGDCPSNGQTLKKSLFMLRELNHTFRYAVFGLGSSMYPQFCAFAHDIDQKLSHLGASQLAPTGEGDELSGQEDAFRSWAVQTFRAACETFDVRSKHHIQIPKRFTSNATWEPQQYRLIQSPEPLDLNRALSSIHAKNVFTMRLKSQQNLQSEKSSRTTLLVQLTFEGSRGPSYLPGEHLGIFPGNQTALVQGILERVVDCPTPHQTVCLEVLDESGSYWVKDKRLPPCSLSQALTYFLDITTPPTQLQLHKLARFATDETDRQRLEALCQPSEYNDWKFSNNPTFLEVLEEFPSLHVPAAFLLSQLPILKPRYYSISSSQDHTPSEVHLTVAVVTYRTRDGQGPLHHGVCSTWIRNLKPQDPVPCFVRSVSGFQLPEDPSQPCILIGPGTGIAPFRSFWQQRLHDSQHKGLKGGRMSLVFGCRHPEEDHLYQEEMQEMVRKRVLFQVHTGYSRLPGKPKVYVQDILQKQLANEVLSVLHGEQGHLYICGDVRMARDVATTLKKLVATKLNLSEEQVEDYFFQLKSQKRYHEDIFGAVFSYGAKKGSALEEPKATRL

HT-29 = experiment: Antiproliferative activity against human HT-29 cells assessed as cell growth inhibition; assay type: functional, cell-based
HL-60 = experiment: Antiproliferative activity against human HL-60 cells assessed as cell growth inhibition; assay type: functional, cell-based
Tubulin = experiment: Inhibition of tubulin (unknown origin); assay type: protein-complex assay, Homo sapiens
Staphylococcus aureus = experiment: Antimicrobial activity against Staphylococcus aureus assessed as inhibition of bacterial growth; assay type: functional
Bacillus subtilis = experiment: Antimicrobial activity against Bacillus subtilis assessed as inhibition of bacterial growth; assay type: functional
[3] = test system: Mycobacterium tuberculosis; experiment: Antimycobacterial activity against Mycobacterium tuberculosis; assay type: functional
[4] = Antioxidant activity assessed as ABTS radical scavenging activity; assay type: functional
Plasmodium falciparum [5] = experiment: Antiplasmodial activity against Plasmodium falciparum D6; assay type: functional, organism-based
Plasmodium falciparum [6] = experiment: Antiplasmodial activity against Plasmodium falciparum 3D7; assay type: functional, organism-based
Plasmodium falciparum [7] = experiment: Antiplasmodial activity against Plasmodium falciparum W2; assay type: functional, organism-based
MDA-MB-435 = experiment: Antiproliferative activity against human MDA-MB-435 cells assessed as cell growth inhibition at 10 uM relative to control; assay type: functional, cell-based
K562 = experiment: Antiproliferative activity against human K562 cells assessed as cell growth inhibition at 10 uM relative to control; assay type: functional, cell-based
[8] = Antioxidant activity assessed as DPPH radical scavenging activity; assay type: functional
[9] = Inhibition of CDK5/p25 (unknown origin); set-up: species or system Homo sapiens
Candida albicans = experiment: Antifungal activity against Candida albicans assessed as inhibition of fungal growth; assay type: functional
Maltase-glucoamylase = Maltase-glucoamylase (Homo sapiens, UniProt O43451); experiment: Inhibition of alpha-glucosidase (unknown origin)
Maltase-glucoamylase, sequence (O43451 whole entry): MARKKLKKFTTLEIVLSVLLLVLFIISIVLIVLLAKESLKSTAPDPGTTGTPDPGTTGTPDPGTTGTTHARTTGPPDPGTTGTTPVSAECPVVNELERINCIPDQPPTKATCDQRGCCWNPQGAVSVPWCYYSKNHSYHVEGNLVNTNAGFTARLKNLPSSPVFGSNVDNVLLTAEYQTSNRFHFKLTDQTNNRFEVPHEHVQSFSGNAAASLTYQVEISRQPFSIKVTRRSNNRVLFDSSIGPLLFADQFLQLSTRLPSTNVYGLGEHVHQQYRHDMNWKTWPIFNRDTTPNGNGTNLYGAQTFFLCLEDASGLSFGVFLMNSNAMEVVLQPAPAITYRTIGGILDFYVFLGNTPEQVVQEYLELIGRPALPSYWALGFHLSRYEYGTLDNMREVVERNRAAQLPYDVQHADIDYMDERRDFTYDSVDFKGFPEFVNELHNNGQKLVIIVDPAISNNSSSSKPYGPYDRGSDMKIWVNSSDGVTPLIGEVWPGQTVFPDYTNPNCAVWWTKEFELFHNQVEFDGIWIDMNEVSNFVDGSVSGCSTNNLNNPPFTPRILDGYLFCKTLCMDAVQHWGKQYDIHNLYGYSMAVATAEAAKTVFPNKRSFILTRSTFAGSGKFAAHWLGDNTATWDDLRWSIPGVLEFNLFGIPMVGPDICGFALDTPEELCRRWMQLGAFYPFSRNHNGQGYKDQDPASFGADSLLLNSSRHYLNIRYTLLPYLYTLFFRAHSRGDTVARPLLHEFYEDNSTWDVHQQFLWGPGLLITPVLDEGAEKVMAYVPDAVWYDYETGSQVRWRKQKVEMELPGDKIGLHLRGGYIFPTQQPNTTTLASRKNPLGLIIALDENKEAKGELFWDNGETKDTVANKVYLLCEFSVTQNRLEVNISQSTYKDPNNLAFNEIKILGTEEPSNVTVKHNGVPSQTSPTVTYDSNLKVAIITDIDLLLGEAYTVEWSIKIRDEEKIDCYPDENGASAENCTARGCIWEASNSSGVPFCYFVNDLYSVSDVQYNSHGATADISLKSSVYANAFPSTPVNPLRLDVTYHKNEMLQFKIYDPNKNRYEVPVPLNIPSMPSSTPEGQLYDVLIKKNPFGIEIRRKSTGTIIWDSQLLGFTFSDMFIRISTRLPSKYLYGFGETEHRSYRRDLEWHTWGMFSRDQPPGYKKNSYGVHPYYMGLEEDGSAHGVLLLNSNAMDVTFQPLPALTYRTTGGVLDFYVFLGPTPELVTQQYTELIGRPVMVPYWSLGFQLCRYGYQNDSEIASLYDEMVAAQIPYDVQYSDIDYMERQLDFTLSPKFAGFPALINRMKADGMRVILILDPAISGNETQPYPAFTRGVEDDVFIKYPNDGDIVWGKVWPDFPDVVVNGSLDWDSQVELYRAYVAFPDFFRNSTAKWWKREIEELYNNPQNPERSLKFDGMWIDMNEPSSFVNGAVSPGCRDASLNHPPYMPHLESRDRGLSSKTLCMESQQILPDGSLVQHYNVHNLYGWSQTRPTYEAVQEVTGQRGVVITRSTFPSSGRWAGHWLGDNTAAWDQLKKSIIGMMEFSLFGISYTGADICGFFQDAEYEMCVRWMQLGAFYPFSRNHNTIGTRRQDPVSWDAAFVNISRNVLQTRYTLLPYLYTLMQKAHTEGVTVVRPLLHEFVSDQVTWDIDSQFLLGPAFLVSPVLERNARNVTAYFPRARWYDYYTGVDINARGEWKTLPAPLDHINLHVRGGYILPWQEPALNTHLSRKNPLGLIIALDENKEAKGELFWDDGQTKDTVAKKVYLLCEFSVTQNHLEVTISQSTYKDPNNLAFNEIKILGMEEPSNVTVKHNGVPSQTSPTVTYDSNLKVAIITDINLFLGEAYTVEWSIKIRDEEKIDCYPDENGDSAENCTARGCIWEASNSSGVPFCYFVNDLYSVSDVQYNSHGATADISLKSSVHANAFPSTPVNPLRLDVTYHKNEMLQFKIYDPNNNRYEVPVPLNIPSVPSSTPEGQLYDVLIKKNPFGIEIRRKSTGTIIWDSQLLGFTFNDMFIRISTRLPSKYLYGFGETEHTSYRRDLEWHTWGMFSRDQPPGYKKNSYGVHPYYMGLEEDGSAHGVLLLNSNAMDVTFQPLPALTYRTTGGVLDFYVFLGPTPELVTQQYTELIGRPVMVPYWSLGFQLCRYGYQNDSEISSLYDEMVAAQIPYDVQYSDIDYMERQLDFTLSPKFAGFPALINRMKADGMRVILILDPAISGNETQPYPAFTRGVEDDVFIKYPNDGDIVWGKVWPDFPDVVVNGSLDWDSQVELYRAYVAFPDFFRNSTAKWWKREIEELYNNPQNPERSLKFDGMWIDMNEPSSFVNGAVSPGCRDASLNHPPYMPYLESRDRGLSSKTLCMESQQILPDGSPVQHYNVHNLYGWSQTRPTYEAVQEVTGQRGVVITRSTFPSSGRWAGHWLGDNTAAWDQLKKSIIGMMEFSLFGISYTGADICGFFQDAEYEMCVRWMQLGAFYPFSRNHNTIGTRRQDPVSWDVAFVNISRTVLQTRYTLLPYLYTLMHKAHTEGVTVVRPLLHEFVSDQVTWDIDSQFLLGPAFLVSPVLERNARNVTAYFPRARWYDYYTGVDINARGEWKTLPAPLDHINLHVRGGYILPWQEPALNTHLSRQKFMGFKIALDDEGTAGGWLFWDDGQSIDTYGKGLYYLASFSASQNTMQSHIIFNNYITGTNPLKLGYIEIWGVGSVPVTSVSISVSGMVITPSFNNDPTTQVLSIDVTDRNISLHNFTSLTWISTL

Fusarium oxysporum = experiment: Antifungal activity against Fusarium oxysporum assessed as inhibition of fungal growth; assay type: functional
[10] = test system: Mycolicibacterium smegmatis; experiment: Anti-mycobacterial activity against Mycobacterium smegmatis assessed as inhibition of bacterial growth; assay type: functional

COc1cc2c(c(OC)c1)C(=O)/C(=C/c1ccc(C(C)C)cc1)N2
IC50 (MES-SA): 17.1 µM
IC50 (MES-SA/Dx5): 5.8 µM

COc1c(O)ccc2c1O/C(=C\c1ccc(O)c(O)c1)C2=O
Activity [1]: 84.2%

CC1(C)CCc2c(ccc3c2O/C(=C\c2ccc(O)c(O)c2)C3=O)O1
IC50 [2]: 8.09 µM

COc1ccc2c(c1)O/C(=C\c1ccc(C(F)(F)F)cc1)C2=O
IC50 (HT-29): 5.9 µM
IC50 (HL-60): 2.59 µM

CCn1cc(/C=C2\Oc3cc(OCC#N)cc(O)c3C2=O)c2cc(OC)ccc21
IC50 (Tubulin): 58.6 µM

COc1ccc(/C=C2\Oc3c(ccc(OC)c3OC)C2=O)cc1O
Activity [1]: 8.9%

Cc1ccc2cc(/C=C3\Oc4cc(O)cc(O)c4C3=O)c(Cl)nc2c1C
MIC (Staphylococcus aureus): 1250 mg/L (≈ 3400 µM)
MIC (Bacillus subtilis): 625 mg/L (≈ 1700 µM)

COc1ccc2c(c1OC)O/C(=C\c1ccc(O)c(O)c1)C2=O
Activity [1]: 85.8%

O=C1/C(=C/c2ccncc2)Oc2cc(OCc3c(Cl)cccc3Cl)ccc21
IC50 (Tubulin): 66 µM

O=C1/C(=C/c2ccc(C(F)(F)F)cc2)Oc2cc(O)ccc21
IC50 (HT-29): 8.9 µM
IC50 (HL-60): 1.54 µM

CC(=O)N1/C(=C\c2ccc(Br)cc2)C(=O)c2ccccc21
MIC99 [3]: 0.37 µM (≈ 0.127 µg/mL)

COc1cc(/C=C2\Oc3c(ccc(O)c3OC)C2=O)ccc1O
Activity [1]: 47.4%

COc1cc(/C=C2\Oc3c(ccc4c3CCC(C)(C)O4)C2=O)ccc1O
IC50 [2]: 5.22 µM

COc1cc(/C=C2\Oc3c(ccc(OC)c3OC)C2=O)ccc1O
Activity [1]: 32.8%

COc1cc(OC)c(C2=CCN(Cc3ccccc3)CC2)c2c1C(=O)/C(=C/c1ccc(Br)cc1)O2
IC50 [4]: 87 µM

O=C1/C(=C/c2ccc(C(F)(F)F)cc2)Oc2cc(OCc3ccccc3)ccc21
IC50 (HT-29): 4.12 µM
IC50 (HL-60): 3.46 µM

CCOc1ccc2c(c1)O/C(=C\c1ccc(C(F)(F)F)cc1)C2=O
IC50 (HT-29): 9.12 µM
IC50 (HL-60): 1.65 µM

COc1cc(OC)c2c(c1)O/C(=C\c1ccc(OC)c(OC)c1)C2=O [4,6,3',4'-TETRAMETHOXYAURONE]
IC50 (Plasmodium falciparum [5]): 13.9 µM
IC50 (Plasmodium falciparum [6]): 7.82 µM
IC50 (Plasmodium falciparum [7]): 13.9 µM

COc1cc(/C=C2\Oc3cc4occc4c(OC)c3C2=O)ccc1OCC(=O)Nc1ccccc1
IC50 (MDA-MB-435): 7.05 µM
inhibition of growth at 10 µM (MDA-MB-435; dose 10 µM, read-out: GI): 79.6%
inhibition of growth at 10 µM (K562; dose 10 µM, read-out: GI): 70.3%

Cc1ccc(/C=C2\Oc3c(ccc4c3CCC(C)(C)O4)C2=O)o1
IC50 [2]: 11.9 µM

COc1ccc2c(c1)O/C(=C\c1cc(O)ccc1O)C2=O
IC50 [8]: 35.9 µM

O=C1/C(=C/c2ccc(O)c(O)c2)Oc2cc(O)cc(O)c21 [AUREUSIDIN]
IC50 [9]: 4.81 µM

CC1(C)CCc2c(ccc3c2O/C(=C\c2ccccn2)C3=O)O1
IC50 [2]: 8.41 µM

O=C1/C(=C/c2ccc(Cl)cc2)Oc2ccccc21
IC50 [8]: 92 µM

C=CCOc1ccc2c(c1)O/C(=C\c1ccc(C(F)(F)F)cc1)C2=O
IC50 (HT-29): 4.12 µM
IC50 (HL-60): 3.53 µM

CCCCc1ccc(/C=C2\Nc3cc(OC)cc(OC)c3C2=O)cc1
IC50 (MES-SA): 17.8 µM
IC50 (MES-SA/Dx5): 3.7 µM

O=C1/C(=C/c2cc3cc(Br)ccc3nc2Cl)Oc2cc(O)cc(O)c21
MIC (Staphylococcus aureus): 1250 mg/L (≈ 2990 µM)
MIC (Bacillus subtilis): 313 mg/L (≈ 748 µM)
MIC (Candida albicans): 78 mg/L (≈ 186 µM)

CC(C)=CCc1c(O)ccc2c1O/C(=C\c1ccc(O)cc1)C2=O
IC50 (Maltase-glucoamylase): 73.8 µM

COc1cc(OC)c(C2=CCN(Cc3ccccc3)CC2)c2c1C(=O)/C(=C/c1ccc(F)cc1)O2
IC50 [4]: 71.7 µM

COc1cc2c(c(OC)c1)C(=O)/C(=C/c1c(C)c(C)cc(C)c1C)N2
IC50 (MES-SA): 9.2 µM
IC50 (MES-SA/Dx5): 19.5 µM

O=C1c2ccccc2OC1(O)Cc1ccc(Cl)cc1 (centres undefined)
IC50 [8]: 54 µM

CC(=O)N1/C(=C\c2ccc(-c3ccsc3)cc2)C(=O)c2ccccc21
MIC99 [3]: 0.6 µM (≈ 0.207 µg/mL)

CC1(C)CCc2c(ccc3c2O/C(=C\c2cccc(O)c2)C3=O)O1
IC50 [2]: 10.8 µM

CCCOc1c(Br)cc(/C=C2\Oc3cc(OC)cc(OC)c3C2=O)cc1OC
IC50 (Plasmodium falciparum [6]): 2.3 µM

Cc1cc(C)c2cc(/C=C3\Oc4cc(O)cc(O)c4C3=O)c(Cl)nc2c1
MIC (Staphylococcus aureus): 2500 mg/L (≈ 6800 µM)
MIC (Fusarium oxysporum): 313 mg/L (≈ 851 µM)
MIC (Bacillus subtilis): 156 mg/L (≈ 424 µM)
MIC [10]: 78 mg/L (≈ 212 µM)
MIC (Candida albicans): 156 mg/L (≈ 424 µM)

CC1(C)CCc2c(ccc3c2O/C(=C\c2ccccc2)C3=O)O1
IC50 [2]: 12.2 µM

CC(=O)N1/C(=C\c2ccc(-c3cncc4ccccc34)cc2)C(=O)c2ccccc21
MIC99 [3]: 0.74 µM (≈ 0.289 µg/mL)

CCCCCCCOc1ccc2c(c1)O/C(=C\c1ccc(C(F)(F)F)cc1)C2=O
IC50 (HT-29): 4.32 µM
IC50 (HL-60): 2.67 µM

COc1cc2c(c(OC)c1)C(=O)/C(=C/c1ccc(C(C)(C)C)cc1)N2
IC50 (MES-SA): 11.9 µM
IC50 (MES-SA/Dx5): 3.4 µM

C#Cc1cccc(Nc2ncnc3cc(OCCOC)c(OCCOC)cc23)c1 [ERLOTINIB]
IC50 (MDA-MB-435): 7.05 µM
IC50 (K562): 3.29 µM

O=C1/C(=C/c2cc3ccccc3nc2Cl)Oc2cc(O)cc(O)c21
MIC (Staphylococcus aureus): 1250 mg/L (≈ 3680 µM)
MIC (Fusarium oxysporum): 625 mg/L (≈ 1840 µM)
MIC (Bacillus subtilis): 20 mg/L (≈ 58.9 µM)
MIC [10]: 625 mg/L (≈ 1840 µM)

CCOc1c(Br)cc(/C=C2\Oc3cc(OC)cc(OC)c3C2=O)cc1OC
IC50 (Plasmodium falciparum [6]): 7.27 µM

COc1cc(OC)c2c(c1)O/C(=C\c1ccccc1)C2=O
IC50 (Plasmodium falciparum [5]): 16.9 µM
IC50 (Plasmodium falciparum [7]): 16.9 µM
